In patent US8563741B2, “CDK inhibitors containing a zinc binding moiety” (Curis, Inc., priority 2007, dated 2013):

Key:
[1] = test system: A375 Melanoma xenograft tumors; assay: Anti-tumor activity in the A375 Melanoma nude mouse xenograft model; type: in vivo; conditions: 60 mg/Kg ip daily in 30% CAPTISOL
Procedure: FIG. 1 is a graph of tumor size versus time for mice bearing A375 Melanoma xenograft tumors receiving either 60 mg/Kg compound 8 in 30% CAPTISOL iv daily or vehicle only.
(c) An In Vivo Study of the Anti-Tumor Activity of Compound 8 in 30% CAPTISOL in the A375 Melanoma Nude Mouse Xenograft Model
Mice were divided into two groups of 5 to 6 mice each. Tumor volumes at the commencement of treatment were 560±230 mm^3. Compound 8 in 30% CAPTISOL was administered daily (60 mg/Kg ip) to one group of animals, while the second group of animals received an equal volume of vehicle.

HDAC = HDAC fluorimetric assay kit (AK-500, Biomol), HeLa nuclear extract; type: biochemical
Procedure: HDAC inhibitors were screened using an HDAC fluorimetric assay kit (AK-500, Biomol, Plymouth Meeting, Pa.). […] Each assay was setup as follows: Defrosted all kit components and kept on ice until use. Diluted HeLa nuclear extract 1:29 in Assay Buffer (50 mM Tris/Cl, pH 8.0, 137 mM NaCl, 2.7 mM KCl, 1 mM MgCl2). Prepared dilutions of Trichostatin A (TSA, positive control) and tested compounds in assay buffer (5× of final concentration). Diluted Fluor de LysTM Substrate in assay buffer to 100 uM (50 fold=2× final). Diluted Fluor de LysTM developer concentrate 20-fold (e.g. 50 μl plus 950 μl Assay Buffer) in cold assay buffer. Second, diluted the 0.2 mM Trichostatin A 100-fold in the 1× Developer (e.g. 10 μl in 1 ml; final Trichostatin A concentration in the 1× Developer=2 μM; final concentration after addition to HDAC/Substrate reaction=1 μM). Added Assay buffer, diluted trichostatin A or test inhibitor to appropriate wells of the microtiter plate. Added diluted HeLa extract or other HDAC sample to all wells except for negative controls. Allowed diluted Fluor de LysTM Substrate and the samples in the microtiter plate to equilibrate to assay temperature (e.g. 25 or 37° C. Initiated HDAC reactions by adding diluted substrate (25 μl) to each well and mixing thoroughly. Allowed HDAC reactions to proceed for 1 hour and then stopped them by addition of Fluor de LysTM Developer (50 μl). Incubated plate at room temperature (25° C.) for 10-15 min. Read samples in a microtiter-plate reading fluorimeter capable of excitation at a wavelength in the range 350-380 nm and detection of emitted light in the range 440-460 nm.

[2] = test system: HL60 AML xenograft tumors; assay: Anti-tumor activity in the HM60 AML nude mouse xenograft model; type: in vivo; conditions: for tumor growth (in words): compound 8 30 mg/Kg, compound 9 60 mg/Kg daily in 30% CAPTISOL
Procedure: FIG. 2 is a graph of tumor size versus time for mice bearing HL60 AML xenograft tumors receiving 30 mg/Kg compound 8 in 30% CAPTISOL iv daily, 60 mg/Kg compound 9 in 30% CAPTISOL iv daily or vehicle only.
(d) An In Vivo Study of the Anti-Tumor Activity of Compounds 8 and 9 in 30% CAPTISOL in the HM60 AML Nude Mouse Xenograft Model
Mice were divided into three groups of 4 mice each. Tumor volumes at the commencement of treatment were 157±56 mm^3. One group of mice received 30 mg/Kg compound 8 daily in 30% CAPTISOL, while a second group received 60 mg/Kg compound 9 in 30% CAPTISOL daily. The third group received an equivalent volume of vehicle daily.

CDK4/cyclinD1 = target: T1, CDK4/cyclinD1 (Homo sapiens, UniProt P11802); assay: CDK activity assay with p33 ATP, CDK4/cyclinD1; type: biochemical; conditions: 1 μM ATP
T1 construct: Recombinant Human Full-length GST-tagged CDK-4 (MW=61.8 kDa) and cyclinD1 (MW=61.2 kDa); GST; made in house; host or cells: insect cells
Procedure: Recombinant Human Full-length GST-tagged CDK-4 (MW=61.8 kDa) and cyclinD1 (MW=61.2 kDa) were expressed in insect cells. […] Activity was determined at a final protein concentration at 8.33 μg/mL.
RBC-CTF (Substrate for CDK4):
Human RB protein (S773-K928, MW=44.46 kDa), N-terminal GST-tagged was purified and followed with a factor Xa cleavage, which was performed in 4 mM concentration of glutathione, Purified protein was stocked at a concentration of 0.67 mg/ml.
2 nM CDK4/cyclinD1 and 1 μM RB-CTF were mixed in the reaction buffer with final concentration of 1 μM ATP and 1% DMSO.

[3] = test system: OPM2 Multiple Myeloma xenograft tumors; assay: Anti-tumor activity in the OPM2 Multiple Myeloma nude mouse xenograft model; type: in vivo; conditions: 60 mg/Kg iv daily in 30% CAPTISOL
Procedure: FIG. 3 is a graph of tumor size versus time for mice bearing OPM2 Multiple Myeloma xenograft tumors receiving either 60 mg/Kg compound 9 in 30% CAPTISOL iv daily or vehicle only.
(e) An In Vivo Study of the Anti-Tumor Activity of Compound 9 in 30% CAPTISOL in the OPM2 Multiple Myeloma Nude Mouse Xenograft Model
Mice were divided into two groups of 7 mice each. Treatment began when the tumor sizes were 276±46 mm^3. Compound 9 in 30% CAPTISOL was administered to the animals daily at 60 mg/Kg iv.

T1 sequence (P11802 whole entry): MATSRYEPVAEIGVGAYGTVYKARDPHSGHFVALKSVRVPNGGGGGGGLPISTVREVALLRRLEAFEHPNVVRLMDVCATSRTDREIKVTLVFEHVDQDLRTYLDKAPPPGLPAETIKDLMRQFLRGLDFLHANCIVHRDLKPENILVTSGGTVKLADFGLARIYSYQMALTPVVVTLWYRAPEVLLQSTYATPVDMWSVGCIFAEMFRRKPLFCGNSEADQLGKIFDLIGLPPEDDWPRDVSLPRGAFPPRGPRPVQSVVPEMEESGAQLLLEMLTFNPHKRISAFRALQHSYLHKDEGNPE
T1 sequence (P24385 whole entry partner): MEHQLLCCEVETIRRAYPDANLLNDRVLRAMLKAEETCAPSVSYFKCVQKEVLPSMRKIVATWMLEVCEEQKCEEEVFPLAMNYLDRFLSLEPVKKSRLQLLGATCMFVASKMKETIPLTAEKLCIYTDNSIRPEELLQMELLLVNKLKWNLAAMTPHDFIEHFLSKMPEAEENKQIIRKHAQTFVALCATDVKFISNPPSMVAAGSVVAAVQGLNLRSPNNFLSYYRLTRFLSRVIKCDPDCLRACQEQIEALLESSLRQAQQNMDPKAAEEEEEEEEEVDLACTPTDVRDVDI

Question: Which “tumor growth (in words)” value [1] does the source give for `CC(C)(C)c1cnc(CSc2cnc(NC(=O)CCCCCCC(=O)NO)s2)o1` [Compound 8, N^1-(5-((5-tert-butyloxazol-2-yl)methylthio)thiazol-2-yl)-N^8-hydroxyoctanediamide] here?
Answer: The value was “able to attenuate tumor growth”.

Question: What about the “increase in tumor size” value ([1]; after 10 days, vehicle about 130% increase) of the same compound?
Answer: Its value is 50%.

Question: And the IC50 (HDAC)?
Answer: Its IC50 is < 100 nM.

Question: And the “increase in tumor size” value ([2]; 30 mg/Kg daily in 30% CAPTISOL, after 10 days, vehicle about 230% change)?
Answer: The value was ~90%.

Question: And the “tumor growth (in words)” value [2]?
Answer: The value was “able to attenuate tumor growth”.

Question: What about the IC50 (CDK4/cyclinD1) of the same compound?
Answer: The IC50 was 100 to 1000 nM.

Question: Which IC50 (HDAC) does the source give for `CC(C)(C)c1cnc(CSc2cnc(NC(=O)Cc3ccc(OCCCC(=O)NO)cc3)s2)o1` [Compound 9, 4-(4-(2-(5-((5-tert-butyloxazol-2-yl)methylthio)thiazol-2-ylamino)-2-oxoethyl)phenoxy)-N-hydroxybutanamide] here?
Answer: The IC50 was 100 to 1000 nM.

Question: And the “decrease in tumor size” value ([2]; 60 mg/Kg daily in 30% CAPTISOL, after 10 days, vehicle about 230% change)?
Answer: The value was “about 50%”.

Question: What about the “tumor growth (in words)” value [2] of the same compound?
Answer: The value was “able to attenuate tumor growth”.

Question: What about the “tumor growth (in words)” value [3] of the same compound?
Answer: The value was “able to attenuate tumor growth”.

Question: And the “increase in tumor size” value ([3]; after 10 days, vehicle about 450% increase)?
Answer: Its value is ~50%.

Question: And the IC50 (CDK4/cyclinD1)?
Answer: Its IC50 is < 100 nM.

Question: For `CC(C)(C)c1cnc(CSc2cnc(NC(=O)C3CCN(c4ncc(C(=O)NO)cn4)CC3)s2)o1` [Compound 20, 2-(4-(5-((5-tert-butyloxazol-2-yl)methylthio)thiazol-2-ylcarbamoyl)piperidin-1-yl)-N-hydroxypyrimidine-5-carboxamide], which IC50 (HDAC) is on record?
Answer: The IC50 was < 100 nM.

Question: And the IC50 (CDK4/cyclinD1)?
Answer: The IC50 was 100 to 1000 nM.

Question: What about the melting point of the same compound?
Answer: Its melting point is 181 to 183 °C.
